The OligoGym collection
“And” between values parts separate entries of the source, which are not always exact repeats. Identical values can stand only once. After the bases stand the sugars from the 5' end (letter, count) and the backbone: PS all phosphorothioate, else s phosphorothioate and o phosphodiester by linkage. Methylation of C is not given here. e = 2'-O-(2-methoxyethyl) (MOE); k = constrained ethyl (cEt); d = 2'-deoxy (DNA)

molecular target: IRF4; conditions: ASO, MM.1R, 0.074 µM

“CTGCTTGAGGTTTTCC (sugars e1 k2 d9 k2 e2, PS)” was tested, and the target mRNA inhibition was 6%.

same assay, conditions: ASO, MM.1R, 0.222 µM

“CTGCTTGAGGTTTTCC (sugars e1 k2 d9 k2 e2, PS)” was tested, and the target mRNA inhibition was 21%.

same assay, conditions: ASO, MM.1R, 0.666 µM

For “CTGCTTGAGGTTTTCC (sugars e1 k2 d9 k2 e2, PS)”, the target mRNA inhibition was 38%.

same assay, conditions: ASO, MM.1R, 1 µM

In order of falling target mRNA inhibition:
1. CTGCTTGAGGTTTTCC (sugars e1 k2 d9 k2 e2, PS)  52%
2. CTGCTTGAGGTTTTCC (sugars kkddddddddddkeke, PS)  44%
3. CTGGATATGTGGTGTT (sugars k3 d10 k3, PS)  30%
4. CTGCTTGAGGTTTTCC (sugars kkkddddddddkekek, PS)  26%
5. CTTGATAAAGGCTGAA (sugars kkkdddddddddkeke, PS)  24%
6. CTTGGCTGTGGGATGC (sugars k3 d10 k3, PS)  21%
7. CTTGATAAAGGCTGAA (sugars e1 k2 d9 k2 e2, PS)  17%
8. CTTGATAAAGGCTGAA (sugars kkdddddddddkekek, PS)  12%
9. CTTTCCCATGGTTACT (sugars k3 d10 k3, PS)  8%
10. CTTGATAAAGGCTGAA (sugars kkddddddddddkeke, PS)  4%
11. CTGTATGGAACCCCAA (sugars k3 d10 k3, PS)  3%
12. CTTAGAATGAGAGGTG (sugars k3 d10 k3, PS)  1%
13. CTTGATAAAGGCTGAA (sugars kkdddddddddkdkdk, PS)  1%
14. CTTTATAGTAGGTAAG (sugars k3 d10 k3, PS)  -1%
15. CTGCGAAGCGCGCGCG (sugars k3 d10 k3, PS)  -6%

In the case of “CTGTTACCGATGCTTC (sugars kkddddddddddkeke, PS)”, the target mRNA inhibition is reported as 43% and 37%.
In the case of “CTGTTACCGATGCTTC (sugars kkdddddddddkekek, PS)”, the target mRNA inhibition is reported as 52% and 44%.

same assay, conditions: ASO, MM.1R, 2 µM

“CTGCTTGAGGTTTTCC (sugars e1 k2 d9 k2 e2, PS)” gave a target mRNA inhibition of 60%.

same assay, conditions: ASO, SK-MEL-28, 0.185 µM

CTGCTCACTAAGCTTG (sugars k3 d10 k3, PS) was tested, and the target mRNA inhibition was 6% and 5% and -1%.

same assay, conditions: ASO, SK-MEL-28, 4 µM

In order of falling target mRNA inhibition:
1. CTGCTCACTAAGCTTG (sugars k3 d10 k3, PS)  73%
2. CTTGATAAAGGCTGAA (sugars k3 d10 k3, PS)  60%
3. CTCTTTAAAATATCGC (sugars k3 d10 k3, PS)  56%
4. CTGTAAGGGCTGCTCA (sugars k3 d10 k3, PS)  56%
5. CTTGGTCAATTTTCAC (sugars k3 d10 k3, PS)  53%
6. CTGTATAGTTCTCAAC (sugars k3 d10 k3, PS)  52%
7. CTGCTGCCCAATACAT (sugars k3 d10 k3, PS)  47%
8. CTTGCCGCTGTCGATC (sugars k4 d8 k4, PS)  42%
9. CTTCATTTACTGTTAC (sugars k3 d10 k3, PS)  31%
10. CTTTAGTGTCGCCATG (sugars k3 d10 k3, PS)  29%
11. CTTAAGCTAAACTCCT (sugars k3 d10 k3, PS)  27%
12. CTGAGATAGGAAGCAC (sugars k3 d10 k3, PS)  26%
13. CTTCACTACCTGCAGC (sugars k3 d10 k3, PS)  22%
14. CTTGCCAGTGGTGGCC (sugars k3 d10 k3, PS)  16%
15. CTTTGAAGTGCTGTGT (sugars k3 d10 k3, PS)  16%
16. CTTGCAGCTCTGACAA (sugars k3 d10 k3, PS)  9%
17. CTTAGGAACGAAGAGC (sugars k3 d10 k3, PS)  7%
18. CTTGTCTCCCCCAGAG (sugars k3 d10 k3, PS)  3%
19. CTGGAGGTCGAACCTC (sugars k3 d10 k3, PS)  2%
20. CTTCTTTATGCGAAGA (sugars k3 d10 k3, PS)  -5%
21. CTTTACACAGTTCTAA (sugars k3 d10 k3, PS)  -13%
22. CTGGGCCTTGCCAGTG (sugars k3 d10 k3, PS)  -14%
23. CTGCATTTGCAAATAA (sugars k3 d10 k3, PS)  -21%
24. CTGCAAATCCCTCTTG (sugars k3 d10 k3, PS)  -33%

CTTGTCTCGCCGCAAT (sugars k3 d10 k3, PS) was tested, and the target mRNA inhibition was 65% and 47%.

same assay, conditions: ASO, SK-MEL-28, 15 µM

CTGCTCACTAAGCTTG (sugars k3 d10 k3, PS) was tested, and the target mRNA inhibition was 78% and 80% and 94%.
